Assay results published in BindingDB's records for doi:10.1021/jm400568p (University of Manchester, 2013).
pIC50: −log10 of the molar value.

Biological target: DNA-(apurinic or apyrimidinic site) endonuclease (Homo sapiens, UniProt P27695)
Test: Inhibition of APE-1 (unknown origin) using double-stranded AP-site containing DNA as substrate after 30 mins by fluorescence assay

Chain of DNA-(apurinic or apyrimidinic site) endonuclease (P27695 whole entry): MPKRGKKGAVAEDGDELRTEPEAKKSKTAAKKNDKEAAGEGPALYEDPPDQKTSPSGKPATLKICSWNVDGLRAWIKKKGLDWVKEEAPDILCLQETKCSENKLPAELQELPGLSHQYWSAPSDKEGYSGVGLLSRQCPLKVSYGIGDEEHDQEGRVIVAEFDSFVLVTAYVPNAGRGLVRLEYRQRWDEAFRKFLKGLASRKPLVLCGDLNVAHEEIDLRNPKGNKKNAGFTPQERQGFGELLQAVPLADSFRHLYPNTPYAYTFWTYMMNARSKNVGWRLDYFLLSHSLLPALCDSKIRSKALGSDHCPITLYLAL

## Cn1nc(-c2ccccc2)c(O)c2c(=O)[nH]c(=N)nc1-2
  pIC50: < 3.70
